Values after ≈ are worked out from the molar mass of the structure shown. Where two headings read alike, the source gives them in different places.
What was measured:
P. aeruginosa 799/WT = test: Minimum inhibitory concentration in vitro, agar dilution method; assay type: cell-based; details: Pseudomonas aeruginosa
From the text: (§1) 1. Minimum Inhibitory Concentration in vitro
(§2) The activities ascertained, minimum inhibitory concentration (MIC) in μg/ml, are compiled in Table 1 hereinafter: […]

E. cloacae P99 = test: as above; assay type: cell-based; details: Enterobacter cloacae
From the text: as §1, §2

E. cloacae 908SSi = test: as above; assay type: cell-based; details: Enterobacter cloacae
From the text: as §1, §2

S. aureus 6538 = test: as above; assay type: cell-based; details: Staphylococcus aureus
From the text: as §1, §2

S. pyogenes 15 = test: as above; assay type: cell-based; details: Streptococcus pyogenes
From the text: as §1, §2

E. coli 25922 [1] = test: as above; assay type: cell-based; details: Escherichia coli
From the text: as §1, §2

K. oxytoca 1082 = test: as above; assay type: cell-based; details: Klebsiella oxytoca
From the text: as §1, §2

P. vulgaris 1028 = test: as above; assay type: cell-based; details: Proteus vulgaris
From the text: as §1, §2

E. cloacae 908R = test: as above; assay type: cell-based; details: Enterobacter cloacae
From the text: as §1, §2

P. mirabilis 2117 = test: as above; assay type: cell-based; details: Proteus mirabilis
From the text: as §1, §2

S. marcescens 69438 = test: as above; assay type: cell-based; details: Serratia marcescens
From the text: as §1, §2

P. aeruginosa BA = test: as above; assay type: cell-based; details: Pseudomonas aeruginosa
From the text: as §1, §2

P. aeruginosa 799/61 = test: as above; assay type: cell-based; details: Pseudomonas aeruginosa
From the text: as §1, §2

P. aeruginosa 27853 = test: as above; assay type: cell-based; details: Pseudomonas aeruginosa
From the text: as §1, §2

C. freundii 902 = test: as above; assay type: cell-based; details: Citrobacter freundii
From the text: as §1, §2

P. aeruginosa MK1184 = test: as above; assay type: cell-based; details: Pseudomonas aeruginosa
From the text: as §1, §2

K. pneumoniae 418 = test: as above; assay type: cell-based; details: Klebsiella pneumoniae
From the text: as §1, §2

E. coli 25922 [2] = test: Experimental systemic septicaemia in the mouse; assay type: in vivo; details: 96 h
Method: (§3) 2. Experimental systemic septicaemia in the mouse
(§4) An experimental systemic septicaemia was produced in albino mice weighing 16-20 g by intraperitoneally injecting into the experimental animals a sample of a dilute culture of the test organism which had been grown overnight. The sample administered is calculated such that the dosage administered is about 5-100 times greater than the dosage which is required to kill 50% of untreated experimental animals within 48 hours. The bacteria were injected as a suspension in the culture broth. Groups of 5 experimental animals each were used not only for the control, but also for the treatment for each dosage tested. The products in accordance with the invention were administered subcutaneously as a suspension in Tween 80 (2%), whereby the concentrations were chosen such that each experimental animal received 500 μl per administration. The respective concentrations were administered twice, namely 1 and 3 hours after the infection (in the case of P. aeruginosa three times, namely 1, 3 and 5 hours after the infection). The ED50 is that dosage which protects 50% of the experimental animals and was calculated by means of the Probit method on the basis of the survial rate after 4 days following the infection. The ED50 values in mg/kg s.c. (subcutaneous) for representatives of the class of substance in accordance with the invention are given in Table 2 hereinafter.

[3] = system: Pseudomonas aeruginosa BA; test: Experimental systemic septicaemia in the mouse; assay type: in vivo; details: sc, 96 h
Method: as §3, §4

S. pneumoniae BA = test: Minimum inhibitory concentration in vitro, agar dilution method; assay type: cell-based; details: Streptococcus pneumoniae; S. pneumoniae BA, agar dilution; read-out: MIC
From the text: as §1, §2

[4] = P. aeruginosa 799/WT, agar dilution, read-out: MIC
[5] = E. cloacae 908SSi, agar dilution, read-out: MIC
[6] = S. aureus 6538, agar dilution, read-out: MIC
[7] = S. pyogenes 15, agar dilution, read-out: MIC
[8] = E. coli 25922, agar dilution, read-out: MIC
[9] = K. oxytoca 1082, agar dilution, read-out: MIC
[10] = E. cloacae 908R, agar dilution, read-out: MIC
[11] = S. marcescens 69438, agar dilution, read-out: MIC
[12] = P. aeruginosa BA, agar dilution, read-out: MIC
[13] = P. aeruginosa 799/61, agar dilution, read-out: MIC
[14] = P. aeruginosa 27853, agar dilution, read-out: MIC
[15] = C. freundii 902, agar dilution, read-out: MIC
[16] = P. aeruginosa MK1184, agar dilution, read-out: MIC
[17] = K. pneumoniae 418, agar dilution, read-out: MIC

Q: For `Cc1cc(SCC2=C(C(=O)O)N3C(=O)[C@@H](NC(=O)/C(=N\OC(C)(C)C(=O)NO)c4csc(N)n4)[C@H]3SC2)n2nc(CNS(=O)(=O)c3ccc(O)c(O)c3)nc2n1` [Example 1, (6R,7R)-7-[(Z)-2-(2-amino-4-thiazolyl)-2-[[(1-hydroxycarbamoyl)-1-methylethoxy]imino]acetamido]-3-[[[2-[(3,4-dihydroxybenzenesulphonamido)methyl]-5-methyl-s-triazolo[1.5-a]pyrimidin-7-yl]thio]methyl]-8-oxo-5-thia-1-azabicyclo[4.2.0]oct-2-ene-2-carboxylic acid], which MIC (P. aeruginosa 799/WT; [4]) is on record?
A: The MIC was 0.5 µg/mL (≈ 0.588 µM).

Q: And the MIC (E. cloacae P99)?
A: The MIC was 32 µg/mL (≈ 37.7 µM).

Q: And the MIC (E. cloacae 908SSi; [5])?
A: The MIC was 4 µg/mL (≈ 4.71 µM).

Q: What about the MIC (S. aureus 6538; [6]) of the same compound?
A: The MIC was 16 µg/mL (≈ 18.8 µM).

Q: And the MIC (S. pyogenes 15; [7])?
A: The MIC was 4 µg/mL (≈ 4.71 µM).

Q: And the MIC (E. coli 25922 [1]; [8])?
A: The MIC was 0.25 µg/mL (≈ 0.294 µM).

Q: What about the MIC (K. oxytoca 1082; [9]) of the same compound?
A: Its MIC is 0.5 µg/mL (≈ 0.588 µM).

Q: And the MIC (P. vulgaris 1028; P. vulgaris 1028, agar dilution, read-out: MIC)?
A: Its MIC is 0.5 µg/mL (≈ 0.588 µM).

Q: What about the MIC (E. cloacae 908R; [10]) of the same compound?
A: The MIC was 16 µg/mL (≈ 18.8 µM).

Q: And the MIC (P. mirabilis 2117; P. mirabilis 2117, agar dilution, read-out: MIC)?
A: Its MIC is 0.12 µg/mL (≈ 0.141 µM).

Q: And the MIC (S. marcescens 69438; [11])?
A: Its MIC is 0.25 µg/mL (≈ 0.294 µM).

Q: What about the MIC (P. aeruginosa BA; [12]) of the same compound?
A: Its MIC is 0.5 µg/mL (≈ 0.588 µM).

Q: And the MIC (P. aeruginosa 799/61; [13])?
A: Its MIC is 0.25 µg/mL (≈ 0.294 µM).

Q: What about the MIC (P. aeruginosa 27853; [14]) of the same compound?
A: Its MIC is 4 µg/mL (≈ 4.71 µM).

Q: And the MIC (C. freundii 902; [15])?
A: The MIC was 1 µg/mL (≈ 1.18 µM).

Q: And the MIC (P. aeruginosa MK1184; [16])?
A: The MIC was 4 µg/mL (≈ 4.71 µM).

Q: And the MIC (K. pneumoniae 418; [17])?
A: Its MIC is 0.12 µg/mL (≈ 0.141 µM).

Q: How did the ED50 (E. coli 25922 [2]; Escherichia coli, sc, E. coli 25922, albino mice, s.c. 1 and 3 hours after infection, survival after 4 days, read-out: ED50) turn out when `CC(C)(O/N=C(\C(=O)N[C@@H]1C(=O)N2C(C(=O)O)=C(CSc3nnc(-c4ccc(O)c(O)c4)o3)CS[C@H]12)c1csc(N)n1)C(=O)NNC(=O)c1ccc(O)c(O)c1` [Example 45, (6R,7R)-7-[(Z)-2-(2-amino-4-thiazolyl)-2-[[1-[3-(3,4-dihydroxybenzoyl)carbazoyl]-1-methylethoxy]imino]acetamido]-3-[[[5-(3,4-dihydroxyphenyl)-1,3,4-oxadiazol-2-yl]thio]methyl]-8-oxo-5-thia-1-azabicyclo[4.2.0]oct-2-ene-2-carboxylic acid] was run?
A: Its ED50 is 0.13 mg/kg.

Q: What about the ED50 ([3]; P. aeruginosa BA, albino mice, s.c. 1, 3 and 5 hours after infection, survival after 4 days, read-out: ED50) of the same compound?
A: The ED50 was 2.1 mg/kg.

Q: And the MIC (P. aeruginosa 799/WT; [4])?
A: Its MIC is 0.06 µg/mL (≈ 0.0725 µM).

Q: And the MIC (E. cloacae P99)?
A: The MIC was over 32 µg/mL.

Q: And the MIC (E. cloacae 908SSi; [5])?
A: Its MIC is 2 µg/mL (≈ 2.42 µM).

Q: What about the MIC (S. aureus 6538; [6]) of the same compound?
A: Its MIC is 16 µg/mL (≈ 19.3 µM).

Q: What about the MIC (S. pyogenes 15; [7]) of the same compound?
A: Its MIC is 1 µg/mL (≈ 1.21 µM).

Q: And the MIC (E. coli 25922 [1]; [8])?
A: The MIC was 0.06 µg/mL (≈ 0.0725 µM).

Q: What about the MIC (K. oxytoca 1082; [9]) of the same compound?
A: The MIC was 0.06 µg/mL (≈ 0.0725 µM).

Q: And the MIC (E. cloacae 908R; [10])?
A: Its MIC is over 32 µg/mL.

Q: And the MIC (S. marcescens 69438; [11])?
A: Its MIC is 0.06 µg/mL (≈ 0.0725 µM).

Q: And the MIC (P. aeruginosa BA; [12])?
A: The MIC was 0.06 µg/mL (≈ 0.0725 µM).

Q: What about the MIC (P. aeruginosa 799/61; [13]) of the same compound?
A: Its MIC is 0.64 µg/mL (≈ 0.773 µM).

Q: What about the MIC (P. aeruginosa 27853; [14]) of the same compound?
A: The MIC was 0.12 µg/mL (≈ 0.145 µM).

Q: What about the MIC (C. freundii 902; [15]) of the same compound?
A: The MIC was 0.06 µg/mL (≈ 0.0725 µM).

Q: What about the MIC (P. aeruginosa MK1184; [16]) of the same compound?
A: Its MIC is 1 µg/mL (≈ 1.21 µM).

Q: And the MIC (S. pneumoniae BA)?
A: The MIC was 0.25 µg/mL (≈ 0.302 µM).

Q: And the MIC (K. pneumoniae 418; [17])?
A: Its MIC is 0.06 µg/mL (≈ 0.0725 µM).

Q: What does the source list for `Cc1cc(SCC2=C(C(=O)[O-])N3C(=O)[C@@H](NC(=O)/C(=N\OCS(=O)(=O)c4ccc(O)c(O)c4)c4csc(N)n4)[C@H]3SC2)n2nc(CS(=O)(=O)c3ccc(O)c(O)c3)nc2n1.[Na+]` [Example 10, (6R,7R)-7-[(Z)-2-(2-amino-4-thiazolyl)-2-[[[(3,4-dihydroxyphenyl)sulphonyl]methoxy]imino]acetamido]-3-[[[2-[[(3,4-dihydroxyphenyl)sulphonyl]methyl]-5-methyl-s-triazolo[1,5-a]pyrimidin-7-yl]thio]methyl]-8-oxo-5-thia-1-azabicyclo[4.2.0]oct-2-ene-2-carboxylic acid sodium salt (1:1)]?
A: ED50 (E. coli 25922 [2]; Escherichia coli, 25922, sc): < 0.1 mg/kg; ED50 [3]: 0.15 mg/kg; MIC (P. aeruginosa 799/WT; 799/WT): < 0.1 µg/mL; MIC (E. cloacae P99): 16 µg/mL; MIC (E. cloacae 908SSi; 908SSI): 8 µg/mL; MIC (S. aureus 6538; 6538): 32 µg/mL; MIC (S. pyogenes 15; 15): 4 µg/mL; MIC (E. coli 25922 [1]; 25922): < 0.1 µg/mL; MIC (K. oxytoca 1082; 1082): 4 µg/mL; MIC (P. vulgaris 1028; 1028): < 0.1 µg/mL; MIC (E. cloacae 908R; 908R): 2 µg/mL; MIC (P. mirabilis 2117; 2117): < 0.1 µg/mL; MIC (S. marcescens 69438; 69438): 0.12 µg/mL; MIC (P. aeruginosa BA): < 0.1 µg/mL; MIC (P. aeruginosa 799/61; 799/61): < 0.1 µg/mL; MIC (P. aeruginosa 27853; 27853): < 0.1 µg/mL; MIC (C. freundii 902; 902): 0.12 µg/mL; MIC (P. aeruginosa MK1184; MK1184): < 0.1 µg/mL; MIC (K. pneumoniae 418; 418): < 0.1 µg/mL

Source: patent US5438052A, “Cephalosporin derivatives” (Hoffmann-La Roche Inc., priority 1991, dated 1995)
